# Experimental data reported in patent US20250041461A1, “[177LU] LUTETIUM-PSMA I&T COMPOSITION AND DOSIMETRY, KIT, METHOD OF MAKING, AND METHOD OF USING THEREOF” (Curium US LLC, priority 2023, published 2025).
# Experiment: Eclipse PK and dosimetry sub-study, 27 patients, cycle 1 biodistribution and dosimetry (SPECT/CT, OLINDA 2.2.3)
# Type: in vivo, human
# Conditions: for Absorbed Dose Mean (SD): ECLIPSE, after Cycle 1; for Absorbed Dose in Cycle 1, Mean / Absorbed Dose in Cycle 1, min: N = 16
# Excerpt: Data Acquisition: All participating sites underwent a rigorous site setup process during which all dose calibrators, scanners, and gamma counters used in the sub-study were calibrated. Sites were allowed to enroll patients in the sub-study only after the completion and approval of all site setup processes by Invicro.
# Patients underwent SPECT/CT imaging, with anatomical coverage typically extending from the salivary glands to the pelvis, following the administration of a targeted 7.4±10% GBq of ^177Lu-PSMA-I&T at cycle 1. SPECT/CT imaging was performed at four timepoints: 4 h, 24 h, 48 h, and 168 h post-injection. Additionally, a subset of patients imaged at Cycle 1 (16 out of 27), were also imaged at Cycle 3 (Table 7 in Appendix 1).
# Image acquisition and reconstruction protocols were standardized across all imaging timepoints and patients at each site. Furthermore, each site consistently utilized the same SPECT/CT scanner throughout the duration of the study to ensure uniformity.
# In general, raw projection data was acquired into a 128×128 matrix with medium energy general purpose (MEGP) collimation using a step and shoot acquisition mode, acquiring 60 projections per detector (180 degrees rotation per detector), 20 seconds per projection, with an acquisition zoom of 1.0, and a 20% (±10%) energy window centered over 208 keV.
# A low-dose CT scan was performed prior to beginning the SPECT scan for attenuation correction. Sites were instructed to use the Institutional standard parameters for acquisition of the low-dose CT. Institutional standard reconstruction parameters were used. Scatter correction was required to be applied using a 20% (±10%) scatter window centered over 170 keV.
# The imaging data was analysed using Invicro's VivoQuant software, a validated software used in a 21 CFR § 11-compliant workflow. The general quantification approach was based on the principles detailed in the Medical Internal Radiation Dose (MIRD) Pamphlet No. 16,^1 No 23,2 and No 26,3 as appropriate.
# SPECT images were calibrated in units of Becquerel (Bq) using a calibration factor derived from a source of known activity, measured during site set up with the same acquisition and reconstruction parameters employed for patient imaging. A patient-specific calibration factor was also derived at each clinical time point after acquisition of the patient SPECT/CT. As a quality control measure, if the patient-specific calibration factor differed by more than 10% from the site set up calibration factor, an investigation was conducted.
# Volume of interest (VOI) (kidneys, bladder, liver, lumbar vertebrae L2-L4, lacrimal glands, salivary glands [parotid and submandibular glands], and whole body) were delineated on each dataset by a trained image analyst. […] Organs were segmented either by drawing the entire contour of the organ, or by placing a sphere in a representative region of the organ and then multiplying by the organ's effective mass (based on patient's height and weight).^4 Segmentation methods for each organ are specified in Table 1 and were consistently applied to each patient.
# Clearance of the radiopharmaceutical was derived from a data-appropriate fit of each organ's TAC. Depending on the TAC's shape, the data was fitted with the sum of one, two, or three exponentials, or using a rise and fall model. Fitting was performed with in-house Python software. TIACs were calculated through analytical integration of the curve fit extrapolated to infinity. […] A whole-body TAC was derived from delineating the imaged body. The remainder activity was determined by subtracting the cumulative organ TIACs from the whole body TIAC.
# Organ TIACs were input into OLINDA 2.2.3 for the computation of organ and whole-body absorbed doses, using International Commission on Radiological Protection (ICRP)-103 weighing factors. The ICRP-89 derived male phantom was used for dose estimation. […]
# [1] = Cycle 1, n = 26, patient 12-004 excluded
# [2] = Lacrimal Glands (OLINDA sphere model)
smiles,measurement,setting,value
"O=C([O-])CC[C@H](NC(=O)N[C@@H](CCCCNC(=O)CCCCCCC(=O)NCCCC[C@@H](NC(=O)[C@@H](Cc1ccccc1)NC(=O)[C@@H](Cc1ccc(O)c(I)c1)NC(=O)CC[C@H](C(=O)[O-])N1CCN(CC(=O)[O-])CCN(CC(=O)[O-])CCN(CC(=O)[O-])CC1)C(=O)[O-])C(=O)[O-])C(=O)[O-].[177Lu+3].[H+].[H+].[H+].[H+].[H+] [^177Lu-PSMA I&T, (3S,7S,26R,29R,32R,37R)-29-benzyl-32-(4-hydroxy-3-iodobenzyl)-5,13,20,28,31,34-hexaoxo-37-(4,7,10-tris(carboxymethyl)-1,4,7,10-tetraazacyclododecan-1-yl)-4,6,12,21,27,30,33-heptaazaheptatriacontane-1,3,7,26,37-pentacarboxylic acid; lutetium-177 (III)]","Absorbed Dose, Red Marrow, max","Cycle 1, n = 26",0.49 Gy/GBq
same,"Absorbed Dose, Red Marrow, median","Cycle 1, n = 26",0.03 Gy/GBq
same,"Absorbed Dose, Red Marrow, min","Cycle 1, n = 26",0.00 Gy/GBq
same,"Absorbed Dose, Right Colon, max","Cycle 1, n = 26",0.82 Gy/GBq
same,"Absorbed Dose, Right Colon, median","Cycle 1, n = 26",0.22 Gy/GBq
same,"Absorbed Dose, Right Colon, min","Cycle 1, n = 26",0.01 Gy/GBq
same,"Absorbed Dose, Right colon, Mean","Cycle 1, n = 26",0.25 Gy/GBq
same,"Absorbed Dose, Small intestine, Mean","Cycle 1, n = 26",0.05 Gy/GBq
same,"Absorbed Dose, Small intestine, max","Cycle 1, n = 26",0.15 Gy/GBq
same,"Absorbed Dose, Small intestine, median","Cycle 1, n = 26",0.04 Gy/GBq
same,"Absorbed Dose, Small intestine, min","Cycle 1, n = 26",0.01 Gy/GBq
same,"Absorbed Dose, Spleen, Mean","Cycle 1, n = 26",0.03 Gy/GBq
same,"Absorbed Dose, Spleen, max","Cycle 1, n = 26",0.11 Gy/GBq
same,"Absorbed Dose, Spleen, median","Cycle 1, n = 26",0.02 Gy/GBq
same,"Absorbed Dose, Spleen, min","Cycle 1, n = 26",0.01 Gy/GBq
same,"Absorbed Dose, Stomach Wall, Mean","Cycle 1, n = 26",0.02 Gy/GBq
same,"Absorbed Dose, Stomach Wall, max","Cycle 1, n = 26",0.07 Gy/GBq
same,"Absorbed Dose, Stomach Wall, median","Cycle 1, n = 26",0.01 Gy/GBq
same,"Absorbed Dose, Stomach Wall, min","Cycle 1, n = 26",0.00 Gy/GBq
same,"Absorbed Dose, Testes, Mean","Cycle 1, n = 26",0.01 Gy/GBq
same,"Absorbed Dose, Testes, max","Cycle 1, n = 26",0.07 Gy/GBq
same,"Absorbed Dose, Testes, median","Cycle 1, n = 26",0.01 Gy/GBq
same,"Absorbed Dose, Testes, min","Cycle 1, n = 26",10.00 Gy/GBq
same,"Absorbed Dose, Thymus, Mean","Cycle 1, n = 26",0.01 Gy/GBq
same,"Absorbed Dose, Thymus, max","Cycle 1, n = 26",0.07 Gy/GBq
same,"Absorbed Dose, Thymus, median","Cycle 1, n = 26",0.01 Gy/GBq
same,"Absorbed Dose, Thymus, min","Cycle 1, n = 26",0.00 Gy/GBq
same,"Absorbed Dose, Thyroid, Mean","Cycle 1, n = 26",0.01 Gy/GBq
same,"Absorbed Dose, Thyroid, max","Cycle 1, n = 26",0.07 Gy/GBq
same,"Absorbed Dose, Thyroid, median","Cycle 1, n = 26",0.01 Gy/GBq
same,"Absorbed Dose, Thyroid, min","Cycle 1, n = 26",0.00 Gy/GBq
same,"Absorbed Dose, Total Body, Mean","Cycle 1, n = 26",0.02 Gy/GBq
same,"Absorbed Dose, Total Body, max","Cycle 1, n = 26",0.09 Gy/GBq
same,"Absorbed Dose, Total Body, median","Cycle 1, n = 26",0.02 Gy/GBq
same,"Absorbed Dose, Total Body, min","Cycle 1, n = 26",0.01 Gy/GBq
same,"Absorbed Dose, Urinary Bladder wall, Mean","Cycle 1, n = 26",0.41 Gy/GBq
same,"Absorbed Dose, Urinary Bladder wall, max","Cycle 1, n = 26",0.50 Gy/GBq
same,"Absorbed Dose, Urinary Bladder wall, median","Cycle 1, n = 26",0.41 Gy/GBq
same,"Absorbed Dose, Urinary Bladder wall, min","Cycle 1, n = 26",0.33 Gy/GBq
same,"absorbed dose, kidneys","Cycle 1, n = 26",0.41±0.15 Gy/GBq
same,"absorbed dose, left colon","Cycle 1, n = 26",0.47±0.31 Gy/GBq
same,"absorbed dose, rectum","Cycle 1, n = 26",0.44±0.30 Gy/GBq
same,"absorbed dose, urinary bladder","Cycle 1, n = 26",0.41±0.05 Gy/GBq
same,"Absorbed Dose, Salivary Glands, Mean",[1],0.19 Gy/GBq
same,"Absorbed Dose, Salivary Glands, max",[1],0.80 Gy/GBq
same,"Absorbed Dose, Salivary Glands, median",[1],0.15 Gy/GBq
same,"Absorbed Dose, Salivary Glands, min",[1],0.03 Gy/GBq
same,Absorbed Dose Mean (SD),Heart,0.02 (0.02) Gy/GBq
same,Absorbed Dose Mean (SD),Kidneys,0.41 (0.15) Gy/GBq
same,"Absorbed Dose in Cycle 1, Mean",[2],0.39 Gy/GBq
same,"Absorbed Dose in Cycle 1, min",[2],0.04 Gy/GBq
same,Absorbed Dose Mean (SD),Lacrimal Glands,0.40 (0.36) Gy/GBq
same,Absorbed Dose Mean (SD),Left Colon,0.47 (0.31) Gy/GBq
same,Absorbed Dose Mean (SD),Liver,0.04 (0.02) Gy/GBq
same,"Absorbed Dose in Cycle 1, min",Liver,0.0 Gy/GBq
same,Absorbed Dose Mean (SD),Right Colon,0.25 (0.17) Gy/GBq
same,Absorbed Dose Mean (SD),Salivary Glands,0.19 (0.16) Gy/GBq
same,Absorbed Dose Mean (SD),Spleen,0.03 (0.02) Gy/GBq
same,"Absorbed Dose in Cycle 1, Mean",Testes,0.0 Gy/GBq
same,Absorbed Dose Mean (SD),Thyroid,0.01 (0.02) Gy/GBq
same,"Absorbed Dose in Cycle 1, Mean",Urinary Bladder wall,0.40 Gy/GBq
same,"absorbed dose, lacrimal glands",cycle 1,0.40±0.36 Gy/GBq
same,"mean absorbed dose, bone marrow (red marrow)","cycle 1, image-based (L2-L4)",0.08±0.12 Gy/GBq
same,"absorbed dose, salivary glands","cycle 1, patient 12-004 excluded",0.19±0.16 Gy/GBq
